Consider six compounds from article PMC6271701, “An Unusual 2,3-Secotaraxerene and Other Cytotoxic Triterpenoids from Pleiocarpa pycnantha (Apocynaceae) Leaves Collected from Nigeria” (Molecules, 2014).

A word on the IC50: it is the concentration at which inhibition is half-maximal. Lower therefore signals inhibition by little substance. One may read the melting point as the temperature, or range, at which the solid turns liquid. Usually GI50 stands for the concentration at which growth is held to half of that of the control.

One series deals with MCF-7 cells. In words: WST-1 cytotoxicity assay, MCF-7 cells. In kind it is cell-based, human. The note with it: for IC50: WST-1 assay, 24 h treatment; for SI MCF-7: Selectivity Index = IC50(KMST-6)/IC50(MCF-7). The method, then: (§1) HeLa, HT-29, MCF-7 and KMST-6 cells were prepared from our laboratory stocks. Briefly, cell monolayers were maintained in Dulbecco’s modified Eagle’s (DMEM, Lonza Group Ltd., Base, Switzerland) medium with phenol red supplemented with 10% foetal bovine serum (FBS, Biochrom AG, Berlin, Germany) and 1% Penicillin–streptomycin (Lonza Group Ltd.). All cells were maintained in a humidified incubated at 37 °C in an atmosphere of 5% CO2. The cells were harvested using trypsin (Lonza Group Ltd.), and viable cell concentrations were determined using the Countess® Automated Cell Counter (Invitrogen, CA, USA). 5 × 10^4 viable cells were added to each well of a 96-well tissue culture plate and incubated overnight at 37 °C under 5% CO2 in a humidified incubator to allow cells to attach to wells.
(§2) Cell viability was measured using the WST-1 assay (Roche Diagnostics GmbH, Mannheim, Germany) as previously described by Ngamwongsatit et al., 2008. Cells were plated in 96-well cell culture plates at a concentration of 5 × 10^4 cells/well in 100 µL culture medium. After 24 h the cells were treated with increasing concentrations of ethanol extract (0–2 mg/mL), fractions (0–2 mg/mL) and purified compounds (0–250 µg/mL) for a further 24 h. The extracts, fractions and compounds were prepared in DMSO and then mixed with the culture medium. The final concentrations of the DMSO were less than 0.1%. Following 24 h treatment, 10 µL of cell proliferation reagent WST-1 was added and the plates were incubated for 4 h at 37 °C under 5% CO2 in a humidified incubator. The plates wereshakenfor 1 min on a shaker and the absorbance of the samples were measured at 450 nm (reference wavelength was 750 nm) on a micro-plate reader. The cell viability was calculated using the following formula: % Viability = ODtreated well − ODblank/ODuntreated well − ODblank(1) IC50 values were calculated using Prism Graph pad software. Triplicate experiments were conducted and the results expressed as mean ± SEM.
Background: Formazan colour is commonly taken as a measure of viable cells.

For the next series, the system named is HeLa cells. In words: WST-1 cytotoxicity assay, HeLa cells. The class given is cell-based, human. The note with it: for IC50: WST-1 assay, 24 h treatment; for SI HeLa: Selectivity Index = IC50(KMST-6)/IC50(HeLa). How it is done: as §1, §2
Series [1] can be described thus: Stability of the hydrolysed derivative in organic solvents. The class given is physicochemical. The note with it: organic solvents such as methanol and chloroform. From the text: Compound 4 was isolated as colourless needle-like crystals with molecular formula of C30H48O2 on the basis of TOF-ESI-MS m/z 441.3735[M+H]^+. […] The signal at δ 174.8 (C-2), 77.9 (C-3) in addition to oxygenated methylene protons at δ 3.79 and 4.08 (CH2-3) indicated the presence of a lactone group. […] The NMR data were assigned unambiguously from 2D NMR spectral analysis of compound 4 and its hydrolyzed product 5. The structure was finally established from X-ray diffraction studies. Figure 2 illustrates the perspective view of the molecule with its relative configuration. The compound was thus assigned as 2,3-seco-taraxer-14-en-2,3-lactone and given the name pycanocarpine. After alkaline hydrolysis, compound 4 produced the unstable derivative viz 2,3-seco-3-hydroxy-taraxer-14-en-3-oic acid (5) as an off-white amorphous powder. The TOF-ESI-MS indicated an m/z 459.3889 [M+H]^+. It was noticeable that the free carboxylic and hydroxyl groups would easily reform the lactone ring after a short time in organic solvents such as methanol and chloroform. The NMR data of 5 is similar to the parent compound 4 and is illustrated in Table 1. Minor changes were observed between 4 and 5 for carbons C-11, -23, -24, and -26. The stereochemistry of both compounds, especially ring A, may partially explain this. In 4 the carbonyl group is directed into the same plan similar to C-24, -26 and -11.

The test system of the next series is HT-29 cells. In words: WST-1 cytotoxicity assay, HT-29 cells. In kind it is cell-based, human. Particulars: for IC50: WST-1 assay, 24 h treatment; for SI HT-29: Selectivity Index = IC50(KMST-6)/IC50(HT-29). How it is done:
as §1, §2

The test system of the next series is KMST-6 cells. In words: WST-1 cytotoxicity assay, non-cancerous KMST-6 fibroblasts. In kind it is cell-based, human. The note with it: WST-1 assay; for IC50: 24 h treatment, non-cancerous fibroblast. The method, then: as §1, §2
Series [2] deals with acetyl CoA cholestryl acyl tranferase (ACAT). Also on record: method as in PMID 10425145. Particulars: cited from earlier work.
A short description of series [3]: E/Z isomer stability followed by 1H-NMR. The class given is physicochemical. The note with it: 2–3 months under normal working conditions. From the text: Triterpene esters containing the E-coumaric acid isomer have been reported from natural sources, while, the co-existence of E- and Z-coumaric acid esters of ursolic acid (compounds 2 and 3) in Plumeria obtusa of the same family has been reported once.

Series [4] deals with PC3 prostate tumour cell line. The note with it: read-out: GI50 PC3; in vitro; cited from earlier work.
For series [5], the system named is ME 180 cervical tumour cell line. Particulars: read-out: GI50 ME 180; in vitro; cited from earlier work.
Series [6] has as its system MCF-7 breast tumour cell line. Particulars: read-out: GI50 MCF-7; in vitro; cited from earlier work.
The mark [7] stands for this setting: at the dosages used (0–250 µg/mL).

Regarding `CC1(C)CC[C@]2(C)CC=C3[C@]4(C)CCC(C(C)(C)CO)[C@](C)(CC(=O)O)C4CC[C@@]3(C)C2C1` (stereo partly shown) [Compound 5, 2,3-seco-3-hydroxy-taraxer-14-en-3-oic acid], the melting point lay within 237 to 241 °C. The compound further yielded an IC50 in the series with MCF-7 cells (Homo sapiens, MCF7, 24 h) of 10 µM. Besides, the “SI MCF-7” value in the series with MCF-7 cells is listed as 1. The compound further registered an IC50 in the series with HeLa cells (Homo sapiens, HeLa, 24 h) of 180 µM. Moreover, in the series with HeLa cells, the “SI HeLa” value was found to be 0.06. In addition, in series [1], the “stability (re-lactonisation)” value was “unstable”. This compound also displayed an IC50 in the series on HT-29 cells (Homo sapiens, HT-29, 24 h) of 170 µM. In addition, in the series on HT-29 cells, the “SI HT-29” value turned out to be 0.06. For the same compound, in the series on KMST-6 cells (Homo sapiens, Fibroblast, 24 h), inhibition was half-maximal at 10 µM (IC50).
The compound `CC1(C)CCC2(C)CC=C3C(C)(CCC4C3(C)CCC3C(C)(C)COC(=O)CC34C)C2C1` (stereo not shown) [Compound 4, 2,3-seco-taraxer-14-en-2,3-lactone] showed a melting point of 246 to 249 °C. In the series with MCF-7 cells (Homo sapiens, MCF7, 24 h), this compound showed a 50% inhibitory concentration (IC50) of 20 µM. Moreover, the “SI MCF-7” value with MCF-7 cells is listed as over 30. In the series on HeLa cells (Homo sapiens, HeLa, 24 h), this compound yielded an IC50 of over 600 µM. Also, the “cytotoxicity on HeLa cells (in words)” value in the series on HeLa cells (setting [7]) is reported as “did not show cytotoxicity”. For the same compound, in the series with HT-29 cells (Homo sapiens, HT-29, 24 h), the IC50 was over 600 µM. Besides, the “cytotoxicity on HT-29 cells (in words)” value with HT-29 cells (setting [7]) is given as “did not show cytotoxicity”. In the series on KMST-6 cells (Homo sapiens, Fibroblast, 24 h), this compound came in with an IC50 of over 600 µM. In addition, the “cytotoxicity to non-cancerous cell line KMST-6 (in words)” value in the series with KMST-6 cells is recorded as “non- cytotoxic”.
In the case of `CC1CCC2(C(=O)O)CCC3(COC(=O)C=Cc4ccc(O)cc4)C(=CCC4C5(C)CCC(O)C(C)(C)C5CCC43C)C2C1C` (stereo not shown) [Compound 3, 27-p-Z-coumaroyloxyursolic acid], in the series on MCF-7 cells, the “SI MCF-7” value is 1.7 and the IC50 was 180 µM. Further, the “activity against ACAT (in words)” value in [2] was “potent activity”. In the series on HeLa cells, the “SI HeLa” value is listed as 1.5 and the IC50 was found to be 200 µM. Moreover, the “E/Z isomerization of the isomers (1H-NMR)” value in [3] is reported as “did not observe any such change”. In addition, in the series on HT-29 cells, the “SI HT-29” value is 1.3 and the IC50 came to 230 µM. Besides, in the series with KMST-6 cells, the “cytotoxicity to non-cancerous cell line KMST-6 (in words)” value is “non- cytotoxic” and the IC50 is 300 µM.
With `CC1CCC2(C(=O)O)CCC3(COC(=O)C=Cc4ccc(O)cc4)C(=CCC4C5(C)CCC(O)C(C)(C)C5CCC43C)C2C1C` (stereo not shown) [Compound 2, 27-p-E-coumaroloxyursolic acid], in the series with MCF-7 cells, the “SI MCF-7” value is reported as 1.7 and the IC50 was found to be 60 µM. For the same compound, in the series on HeLa cells, the “SI HeLa” value is on record as 2 and half-maximal inhibition (IC50) required 50 µM. Besides, the “E/Z isomerization of the isomers (1H-NMR)” value in series [3] was “did not observe any such change”. Also, in the series on HT-29 cells, the “SI HT-29” value is 1 and half-maximal inhibition (IC50) required 100 µM. The compound further showed an IC50 in the series with KMST-6 cells of 100 µM.
`C[C@H]1[C@H](C)CC[C@]2(C(=O)O)CC[C@]3(C)C(=CC[C@@H]4[C@@]5(C)CC[C@H](OC(=O)/C=C\c6ccc(O)cc6)C(C)(C)[C@@H]5CC[C@]43C)[C@H]12` (relative stereo) [cis-3-O-p-hydroxycinnamoyl ursolic acid]: the GI50 in series [4], in series [5] and in series [6] was about 20 µM in each case.
For `C[C@H]1[C@H](C)CC[C@]2(C(=O)O)CC[C@]3(C)C(=CC[C@@H]4[C@@]5(C)CC[C@H](O)C(C)(C)[C@@H]5CC[C@]43C)[C@H]12` [Compound 1, ursolic acid], the IC50 in the series on MCF-7 cells (Homo sapiens, MCF7, 24 h) was determined as 20 µM; with HeLa cells (Homo sapiens, HeLa, 24 h) it was 10 µM; with HT-29 cells (Homo sapiens, HT-29, 24 h), 10 µM; in the series with KMST-6 cells (Homo sapiens, Fibroblast, 24 h), 100 µM. In addition, the “SI MCF-7” value in the series on MCF-7 cells amounted to 5.0. Also, in the series on HeLa cells, the “SI HeLa” value turned out to be 10.0. In addition, the “SI HT-29” value with HT-29 cells came out at 10.0.
